Results from ChEMBL document CHEMBL3045461, “Biological evaluation of synthetic analogues of curcumin: chloro-substituted-2-hydroxychalcones as potential inhibitors of tubulin polymerization and cell proliferation” (Med Chem Res, 2011).
The source made the active and inactive calls. The calls are words filed in the database; no cut-off is given here.

How the values were obtained:
SK-N-MC = test: Cytotoxicity against Homo sapiens (human) SK-N-MC cells after 72 hr by MTT assay; format: functional, cell-based
K562 [1] = test: Cytotoxicity against Homo sapiens (human) K562 cells after 72 hr by MTT assay; format: functional, cell-based; conditions: K562, 72 h
Tubulin alpha 4a [2] = biological target: T1, Tubulin alpha 4a (Ovis aries, UniProt C5ISA2); test: (§1) Inhibition of Ovis aries (sheep) brain tubulin polymerization assessed as microtubule assembly after 15 min by measuring turbidity based spectroscopic analysis
[3] = biological target: Tubulin alpha 4a (Ovis aries) (UniProt C5ISA2); test: as §1
[4] = biological target: Tubulin alpha 4a (Ovis aries) (UniProt C5ISA2); test: Binding affinity to Ovis aries (sheep) brain tubulin assessed as […] at 25 to 50 uM after 30 min by far-UV CD spectrum analysis
[5] = biological target: Tubulin alpha 4a (Ovis aries) (UniProt C5ISA2); test: (§2) Binding affinity to Ovis aries (sheep) brain tubulin assessed as intrinsic tryptophan fluorescence after 30 min by fluorescence spectroscopic analysis; format: tissue-based
Tubulin alpha 4a [6] = biological target: T1, Tubulin alpha 4a; test: as §2; format: tissue-based
[7] = biological target: Tubulin alpha 4a (Ovis aries) (UniProt C5ISA2); test: Binding affinity to Ovis aries (sheep) brain tubulin assessed as increase in fluorescent intensity at 1:1 compound protein ratio after 30 min by fluorescence spectroscopic analysis
[8] = biological target: Tubulin alpha 4a (Ovis aries) (UniProt C5ISA2); test: Inhibition of Ovis aries (sheep) brain tubulin polymerization assessed as reduction of length of microtubule filament at 20 to 30 uM after 15 min by transmission electron microscopy analysis
[9] = biological target: Tubulin alpha 4a (Ovis aries) (UniProt C5ISA2); test: Inhibition of Ovis aries (sheep) brain tubulin polymerization assessed as microtubule assembly at 30 uM after 30 min by CD spectra analysis
[10] = biological target: Tubulin alpha 4a (Ovis aries) (UniProt C5ISA2); test: (§3) Inhibition of Ovis aries (sheep) brain tubulin polymerization assessed as microtubule assembly after 30 min by CD spectra analysis
Tubulin alpha 4a [11] = biological target: T1, Tubulin alpha 4a; test: as §3
K562 [12] = test: Cytotoxicity against Homo sapiens (human) K562 cells; format: functional, cell-based
MCF7 = test: Antiproliferative activity against Homo sapiens (human) MCF7 cells; format: functional, cell-based
HeLa = test: Antiproliferative activity against Homo sapiens (human) HeLa cells; format: functional, cell-based

Sequence of Tubulin alpha 4a (Ovis aries) (C5ISA2 1-448): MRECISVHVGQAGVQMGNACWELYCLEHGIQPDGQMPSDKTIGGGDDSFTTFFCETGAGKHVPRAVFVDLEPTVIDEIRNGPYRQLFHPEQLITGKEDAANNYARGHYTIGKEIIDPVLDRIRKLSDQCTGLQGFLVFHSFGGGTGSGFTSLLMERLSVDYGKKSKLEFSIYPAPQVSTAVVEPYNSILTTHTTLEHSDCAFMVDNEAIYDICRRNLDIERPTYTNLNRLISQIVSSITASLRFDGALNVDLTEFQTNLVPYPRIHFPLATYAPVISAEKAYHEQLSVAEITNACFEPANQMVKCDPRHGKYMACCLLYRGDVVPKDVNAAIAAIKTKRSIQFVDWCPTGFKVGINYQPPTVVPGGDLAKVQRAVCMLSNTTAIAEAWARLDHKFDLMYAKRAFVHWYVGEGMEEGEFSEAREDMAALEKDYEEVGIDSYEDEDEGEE
T1 sequence (C5ISA2 1-448): as above

| Compound | IC50 (SK-N-MC) | IC50 (K562 [1]) | IC50 (Tubulin alpha 4a [2]) | inhibition [3] | Activity [4] | Activity [5] | Kd (Tubulin alpha 4a [6]) | Activity [7] | inhibition [8] | inhibition [9] | inhibition [10] | IC50 (Tubulin alpha 4a [11]) | IC50 (K562 [12]) | IC50 (MCF7) | IC50 (HeLa) |
| --- | --- | --- | --- | --- | --- | --- | --- | --- | --- | --- | --- | --- | --- | --- | --- |
| O=C(/C=C/c1ccccc1)c1ccccc1O [2'-HYDROXYCHALCONE] | 61.2 µM | 60.7 µM | 49.3 µM | – | – | – | – | – | – | – | – | – | – | – | – |
| O=C(/C=C/c1ccc(Cl)cc1Cl)c1cc(Cl)ccc1O | 69.8 µM | 65.6 µM | > 50 µM | – | – | – | – | – | – | – | – | – | – | – | – |
| O=C(/C=C/c1ccc(Cl)cc1)c1cc(Cl)ccc1O | 45.8 µM | 38.7 µM | 20.3 µM | Dose-dependent effect | – | – | – | – | – | – | – | – | – | – | – |
| O=C(/C=C/c1cccc(Cl)c1)c1cc(Cl)ccc1O | 47.8 µM | 41.1 µM | 19.6 µM | Dose-dependent effect | Active | Dose-dependent effect | 3.7 µM | Active | Active | 89% | Dose-dependent effect | 19.6 µM | – | – | – |
| O=C(/C=C/c1ccccc1Cl)c1cc(Cl)ccc1O | 51.3 µM | 41.8 µM | 21.4 µM | Dose-dependent effect | – | – | – | – | – | – | – | – | – | – | – |
| COc1cc(/C=C/C(=O)CC(=O)/C=C/c2ccc(O)c(OC)c2)ccc1O [CURCUMIN] | 57.4 µM | 49.2 µM | 26.6 µM | – | – | – | – | – | – | – | – | – | 54.3 µM | 12 µM | 13.8 µM |
